Test results published in US20090274626A1, “TARGETING TNF-alpha CONVERTING ENZYME(TACE)- DEPENDENT GROWTH FACTOR SHEDDING IN CANCER THERAPY” (The Regents of the University of California, priority 2005, published 2009).
“Also recorded” adds a separate entry of the source.

What was measured:
T4-2 cells [1] = test: 3D lrECM (Matrigel) culture of T4-2 cells: reversion of malignant phenotype, polarity, colony size; format: cell-based, human
Protocol: (§1) For 3D lrECM culture, T4-2 cells were seeded at 21000 cells per cm^2 on top of Matrigel, overlaid with H14 medium containing 5% Matrigel (BD Biosciences, San Jose, Calif.), and treated with 80 nM AG1478, 20 μM TAPI-2 or the relevant vehicle controls.
(§2) Silencer™ siRNAs against TACE (Ambion, Austin, Tex.) were also transfected in according to the Reverse Transfection protocol of Invitrogen. siRNAs against the following TACE sense strand sequences were transfected either individually (100 nM) or as a pool (33.3 nM each): […]tt (SEQ ID NO: 2), GCAGCAt[…]tt (SEQ ID NO:3) and […]tt (SEQ ID NO: 4). For 3D culture assays, T4-2 cells were trypsinized post-transfection and plated as single cells in Matrigel. Knockdown was assessed by western blot from a parallel transfection 48 hrs post-transfection. Random siRNA sequence was used as a negative control.
Indirect immunofluorescence. Colonies were solubilized from […] culture by shaking in PBS/0.05M EDTA on ice for 30 mins, fixed in 4% paraformaldehyde, permeabilized, stained with anti-α6-integrin (Chemicon, Temecula, Calif.) and counterstained with DAPI.
(§3) Quantitation of colony size in the 3D lrECM culture was performed by image analysis. Representative images were captured using a digital camera attached to a phase contrast microscope. The high resolution digital images were then analyzed using NIH Image analysis software and the cross-sectional area of each colony was determined for many colonies. This process was hand-curated to ensure that aggregates of colonies were not measured as a single colony.

T4-2 cells [2] = test: Proliferation assay (WST) of T4-2 cells in 2D culture; format: cell-based, human
Protocol: Proliferation assays. HMT3522 cells were seeded in 96 well plates and treated (in triplicate) as described in the figure legends. To determine relative growth, 0.1 volumes of WST cell proliferation analysis reagent (Roche, Indianapolis, Ind.) was added to the medium and its formazan metabolite was measured by absorbance at 460 nm.

T4-2 cells [3] = test: ELISA of AREG and TGFα shed into conditioned medium of T4-2 cells; format: cell-based, human; conditions: TAPI-2-treated T4-2 cells
Protocol: as §2
(§4) ELISA. Equal numbers of cells were washed three times and allowed to condition medium for 90 minutes. The amount of AREG and TGFα accumulating in the medium was determined by using specific ELISA assays (R & D Systems, Minneapolis, Minn.) according to the manufacturer's instructions.

[4] = tested on: signaling kinases downstream of the EGFR; test: Western blot of basal activity of signaling kinases downstream of the EGFR in T4-2 cells; format: cell-based, human; conditions: addition of TAPI-2
Protocol: Western blotting. Cells were lysed in 50 mM Tris.HCl pH 7.5, 150 mM NaCl, 0.5% NP40 supplemented with protease and phosphatase inhibitors (Calbiochem, San Diego, Calif.) and clarified by centrifugation. 50 μg of each sample was fractionated by SDS-PAGE, transferred to nitrocellulose membranes and probed with antibodies against the following proteins: phospho-MAPK, Total MAPK, phospho-p70S6-Kinase, (Cell Signaling Technology, MA). E-cadherin (BD Biosciences, CA) was used as a loading control. Blots were developed using Supersignal West Femto (Pierce, Rockland, Ill.). Images were captured using a Fluor Chem 8900 imager (Alpha Innotech, San Leandro, Calif.).

T4-2 cells [5] = test: Relative proliferation of T4-2 cells with AG 1478 with or without TAPI-2 (sensitization, FIG. 5); format: cell-based, human; conditions: 10 μM TAPI-2; shift of AG 1478 proliferation curve
Protocol: FIG. 5. […] T4-2 cells were allowed to adhere to 48 well plates. Drugs were added at the indicated concentrations. Conditions were analyzed in triplicate. For comparison, all data were normalized to the 100%.
(FIG. 5) In this experiment, T4-2 cells were allowed to adhere to 48 well plates. Drugs, AG 1478 and TAPI-2, were added at various concentrations of 0.001 μM, 0.01 μM, 0.1 μM, 1 μM, 10 μM and 100 μM. Conditions were analyzed in triplicate. For comparison, all data were normalized to the 100%.

T4-2 cells [6] = test: Cytotoxicity of TAPI-2 at the concentration used; format: cell-based, human; conditions: data not shown
S1 cells = test: Acinar morphogenesis of S1 cells in the presence of soluble EGF; format: cell-based, human; conditions: data not shown
Protocol: Cell culture All reagents were purchased from SIGMA (St. Louis, Mo.) except where otherwise noted. HMT3522 cells were cultivated on 2D and 3D substrata in H14 medium, a 50:50 mix of DMEM/F12 (UCSF Cell culture Facility, San Francisco, Calif.) supplemented with 5 μg/ml prolactin, 250 ng/ml insulin, 1.4×10^−6 M hydrocortisone, 10^−10 M β-estradiol, 2.6 ng/ml sodium selenite and 10 μg/ml transferrin. S1 cells were additionally supplemented with 10 ng/ml EGF. In various experiments, cells were supplemented with AREG, TACE, TGFα. In all cases, AREG and TGFα were used at the same molar concentration as EGF ([…]).

T4-2 cells [7] = test: ELISA of EGFR ligands in conditioned medium of T4-2 3D lrECM cultures; format: cell-based, human; conditions: TAPI-2 treatment as printed in legend
Protocol: as §2, §4

[8] = tested on: T4-2 cells expressing AREGΔTM; test: 3D culture of T4-2 cells expressing soluble AREG (AREGΔTM): colony size and morphology; format: cell-based, human; conditions: T4-2 cells producing soluble AREG
Protocol: as §1
(§5) Amphotropic retroviruses were generated by transfection (Lipofectamine; Invitrogen, Carlsbad, Calif.) of the Phoenix packaging cell line (a gift of Dr. Gary Nolan, Stanford) with pBM-IRES-Puro or derivatives containing the AREG or TGFα open reading frames. Two million phoenix cells per 6 cm dish were plated the day prior to transfection and transfected with 2 μg of the appropriate retroviral construct. Retrovirus-containing culture medium was harvested after 48 hrs, supplemented with polybrene to 5 μg/ml and added to HMT3522 cells at 30-50% confluence. Pools of stable infectants were selected in 1 μg/ml puromycin.
(§6) Cloning of pro-AREG and pro-TGFα. The open reading frames of these genes were amplified by PCR from T4-2 cDNA. […]
as §3, with “Representative images were captured using a digital camera attached to a phase contrast microscope.” left out

[9] = tested on: T4-2 cells expressing TGFαΔTM; test: 3D culture of T4-2 cells expressing soluble TGFα (TGFαΔTM): colony size and morphology; format: cell-based, human; conditions: T4-2 cells producing soluble TGFα
Protocol: as §1, §5, §6
as §3, with “Representative images were captured using a digital camera attached to a phase contrast microscope.” left out

MCF-7 = test: ELISA of AREG shedding from MCF-7 cells; format: cell-based, human; conditions: MCF-7, 20 μM TAPI-2, 90 minutes
Protocol: (§7) FIG. 8. Suppression of growth factor shedding by TAPI-2 in a panel of breast cancer cell lines. A: Three AREG-expressing breast cancer cell lines were identified. Equal number of cells were treated with 20 μM TAPI-2 or vehicle for 90 minutes and AREG shedding was quantified by ELISA. B: Two breast cancer cell lines expressing TGFα were identified and treated as described in (A). TAPI-2 suppresses TGFα shedding.
as §4

HCC1500 = test: ELISA of AREG and TGFα shedding from HCC1500 cells; format: cell-based, human; conditions: HCC1500, 20 μM TAPI-2, 90 minutes
Protocol: as §7, §4

ZR75B = test: ELISA of AREG shedding from ZR75B cells; format: cell-based, human; conditions: 20 μM TAPI-2, 90 minutes
Protocol: as §7, §4

MDA-MB-468 = test: ELISA of TGFα shedding from MDA-MB-468 cells; format: cell-based, human; conditions: MDA-MB-468, 20 μM TAPI-2, 90 minutes
Protocol: as §7, §4

TACE = TACE (Homo sapiens, UniProt P78536); conditions: cited from earlier work
Sequence of TACE (P78536 215-824): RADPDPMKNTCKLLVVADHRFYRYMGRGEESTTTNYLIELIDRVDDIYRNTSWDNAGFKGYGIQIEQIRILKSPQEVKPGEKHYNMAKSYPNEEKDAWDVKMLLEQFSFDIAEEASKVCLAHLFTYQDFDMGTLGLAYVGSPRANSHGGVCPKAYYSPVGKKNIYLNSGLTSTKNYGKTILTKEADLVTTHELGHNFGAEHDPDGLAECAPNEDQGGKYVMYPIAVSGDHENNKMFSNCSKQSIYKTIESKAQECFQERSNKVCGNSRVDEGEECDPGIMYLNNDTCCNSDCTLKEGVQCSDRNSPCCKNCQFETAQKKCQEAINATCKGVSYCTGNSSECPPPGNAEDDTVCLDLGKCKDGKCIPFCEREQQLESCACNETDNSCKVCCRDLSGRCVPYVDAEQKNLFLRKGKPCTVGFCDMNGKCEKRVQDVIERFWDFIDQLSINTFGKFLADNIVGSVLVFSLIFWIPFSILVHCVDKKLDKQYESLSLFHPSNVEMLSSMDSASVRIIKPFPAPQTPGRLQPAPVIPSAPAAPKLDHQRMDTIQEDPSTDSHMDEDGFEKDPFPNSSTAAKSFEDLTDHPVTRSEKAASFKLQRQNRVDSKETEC

[10] = tested on: LPS-stimulated human peripheral blood mononuclear cells (PBMC); conditions: cited from earlier work

CC(C)C[C@H](CC(=O)NO)C(=O)N[C@H](C(=O)N[C@@H](C)C(=O)NCCN)C(C)(C)C [TAPI-2, N—(R)-[2-(Hydroxyaminocarbonyl)methyl]-4-methylpentanoyl-L-t-butyl-alanyl-L-alanine, 2-aminoethyl Amide]
restoration of epithelial polarity (basal localization of α6-integrin) (T4-2 cells [1]; 3D culture, TAPI-2 vs vehicle): restoration of epithelial polarity | colony size (cross-sectional area) vs vehicle (T4-2 cells [1]; 3D culture, four days, p<0.001): significantly smaller than those formed by cells treated with vehicle alone; also recorded: significantly different from controls | reversion of the malignant phenotype of T4-2 cells (T4-2 cells [1]; 3D lrECM culture, 80 nM AG1478 or 20 μM TAPI-2 vs vehicle): resulted in a reversion of the malignant phenotype | TAPI-2-induced reduction of T4-2 proliferation on addition of EGF (T4-2 cells [2]; 2D culture, soluble/exogenous EGF added): overcome by addition of exogenous EGF; also recorded: completely overcome by addition of soluble EGF | proliferation of T4-2 cells (T4-2 cells [2]; 2D cultures, vs 0 μM TAPI-2): dose-dependent decrease in proliferation; also recorded: dose-dependent reduction in T4-2 cell proliferation | shedding of AREG (ELISA of CM) (T4-2 cells [3]): suppresses the shedding of both AREG and TGFα | shedding of TGFα (ELISA of CM) (T4-2 cells [3]): suppresses the shedding of both AREG and TGFα | basal activities of signaling kinases downstream of the EGFR [4]: significantly suppressed | sensitization of T4-2 cells to small molecule EGFR inhibitor (AG1478) (T4-2 cells [5]): sensitizes T4-2 cells to the effect of the EGFR inhibitor, AG1478; also recorded: four-fold sensitization | cytotoxicity (T4-2 cells [6]): not cytotoxic at the concentration used | interference with normal acinar morphogenesis of S1 cells (S1 cells): nor did it interfere with the ability of S1 cells to execute normal acinar morphogenesis | levels of shed ligands in conditioned medium (FIG. 6C) (T4-2 cells [7]): reduced | response to TAPI-2 by criteria of colony size and morphology [8]: completely resistant to TAPI-2 | response to TAPI-2 by criteria of colony size and morphology [9]: completely resistant to TAPI-2 | AREG shedding (MCF-7): significantly reduced ligand shedding | AREG shedding (HCC1500): significantly reduced ligand shedding | TGFα shedding (HCC1500): significantly reduced ligand shedding | AREG shedding (ZR75B): significantly reduced ligand shedding | TGFα shedding (MDA-MB-468): significantly reduced ligand shedding

TRWLVYFSRPYLVAT (synthetic peptide shown to inhibit TACE activity)
binding to TACE (TACE): bind to TACE | TNF-alpha release [10]: inhibit the TNF-alpha release
